Source: US20210255193A1, “LYSINE REACTIVE PROBES AND USES THEREOF” (The Scripps Research Institute, priority 2017, published 2021)

The molecules below were run against T1, NONO Non-POU domain-containing octamer-binding protein (Homo sapiens, UniProt Q15233) (assay: competitive isoTOP-ABPP). Conditions: 50 uM, 231 sol, in vitro.
T1 construct: isoTOP-ABPP experiments performed in cell lysates (in vitro); endogenous in cells; host or cells: soluble proteome of human cancer cell lines (MDA-MB-231; Ramos and Jurkat also prepared)
T1 sequence (Q15233 1-471): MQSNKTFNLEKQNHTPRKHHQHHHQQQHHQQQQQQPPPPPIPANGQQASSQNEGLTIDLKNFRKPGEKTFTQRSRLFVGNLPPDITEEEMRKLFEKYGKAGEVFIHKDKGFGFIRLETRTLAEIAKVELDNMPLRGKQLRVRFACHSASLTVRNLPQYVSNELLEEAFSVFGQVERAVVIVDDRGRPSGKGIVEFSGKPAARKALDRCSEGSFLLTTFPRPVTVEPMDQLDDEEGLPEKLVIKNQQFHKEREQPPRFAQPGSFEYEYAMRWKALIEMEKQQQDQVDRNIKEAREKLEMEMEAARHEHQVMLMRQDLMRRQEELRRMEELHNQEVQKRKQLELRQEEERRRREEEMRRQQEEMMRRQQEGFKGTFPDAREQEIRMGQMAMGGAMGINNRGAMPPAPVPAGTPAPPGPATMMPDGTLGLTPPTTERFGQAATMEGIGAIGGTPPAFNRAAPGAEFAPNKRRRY
Summary of the method: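 Cell lysate treated in vitro with fragments (50 μM activated esters, 100 μM guanidinylating agents) or DMSO, labelled 1 h at ambient temperature with 0.1 mM STP-alkyne, CuAAC-tagged with light/heavy TEV tags, analysed by MS. R = DMSO/compound MS1 peak-area ratio; lysines with R≥4 called liganded.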

Row | SMILES | isoTOP-ABPP reactivity ratio at lysine Q15233_K467
1 | COc1cc(CCC(=O)Oc2ccc([N+](=O)[O-])cc2[N+](=O)[O-])cc(OC)c1OC [fragment 33, 2,4-Dinitrophenyl 3-(3,4,5-trimethoxyphenyl)propanoate] | 3.7
2 | O=C(Oc1ccc([N+](=O)[O-])cc1[N+](=O)[O-])c1cc(C(F)(F)F)cc(C(F)(F)F)c1 [fragment 31, 2,4-Dinitrophenyl 3,5-bis(trifluoromethyl)benzoate] | 1.3
3 | O=C(Oc1c(F)c(F)c(F)c(F)c1F)C1CCN(C(=O)OCc2ccccc2)CC1 [fragment 24, 1-Benzyl 4-(pentafluorophenyl) piperidine-1,4-dicarboxylate] | 1.0
4 | Cn1cc(CC(=O)Oc2ccc([N+](=O)[O-])cc2[N+](=O)[O-])c2ccccc21 [fragment 32, 2,4-Dinitrophenyl 2-(1-methyl-1H-indol-3-yl)acetate] | 1.2

Same assay, conditions: 50 uM, in vitro, sol, 231

Row | SMILES | isoTOP-ABPP ratio (R) at liganded lysine Q15233_K467
5 | O=C(Oc1ccc([N+](=O)[O-])cc1[N+](=O)[O-])C(c1ccccc1)(c1ccccc1)c1ccccc1 [fragment 42, 2,4-Dinitrophenyl 2,2,2-triphenylacetate] | 2.5
6 | O=C(Oc1ccc([N+](=O)[O-])cc1[N+](=O)[O-])c1ccccc1Nc1cccc(C(F)(F)F)c1 [fragment 40, 2,4-Dinitrophenyl 2-((3-(trifluoromethyl)phenyl)amino)benzoate] | 4.1
7 | CC(=O)Oc1ccc([N+](=O)[O-])cc1[N+](=O)[O-] [fragment 43, 2,4-Dinitrophenyl acetate] | 3.1
8 | O=C(Oc1ccc([N+](=O)[O-])cc1[N+](=O)[O-])c1ccc(-c2ccccc2)cc1 [fragment 37, 2,4-Dinitrophenyl [1,1′-biphenyl]-4-carboxylate] | 0.8

Same assay, conditions: 50 uM_231_sol_in vitro

Row | SMILES | isoTOP-ABPP ratio, lysine Q15233_K467
9 | O=C(ON1C(=O)CCC1=O)c1cc(C(F)(F)F)cc(C(F)(F)F)c1 [fragment 46, 3,5-Bis(trifluoromethyl)benzoic acid NHS ester] | 0.4
10 | N#Cc1ccc(C(=O)Oc2ccc([N+](=O)[O-])cc2[N+](=O)[O-])cc1 [fragment 44, 2,4-Dinitrophenyl 4-cyanobenzoate] | 0.9

Same assay, conditions: 100 uM_231_sol_in vitro

Row | SMILES | isoTOP-ABPP ratio, lysine Q15233_K467
11 | COC(=O)NC(=NC(=O)OCC1c2ccccc2-c2ccccc21)n1cccn1 [fragment 49, N-Methoxycarbonyl-N′-9-fluorenylmethoxycarbonyl-pyrazole-1-carboxamidine] | 4.9

Same assay, conditions: Q15233_K467; 50 uM, 231 sol, in vitro

Row | SMILES | R value (DMSO/fragment) for probe 1 labeling
12 | O=C(Oc1c(F)c(F)c(F)c(F)c1F)C(c1ccccc1)c1ccccc1 [fragment 20, Pentafluorophenyl 2,2-diphenylacetate] | 1.2
13 | O=C(Oc1c(F)c(F)c(F)c(F)c1F)c1cc(C(F)(F)F)cc(C(F)(F)F)c1 [fragment 21, Pentafluorophenyl 3,5-bis(trifluoromethyl)benzoate] | 1.5

What follows are molecules tested against T2, TTR (Homo sapiens, UniProt P02766) (assay: direct labeling of recombinantly expressed proteins by gel-based ABPP (WT vs lysine mutant)). Conditions: TTR K35, KA mutant; 1 μM TTR in MDA-MB-231 lysate.
T2 construct: made in house; host or cells: E. coli
Assay type: binding
From the text: Subcloning and mutagenesis. Unless noted below, genes were amplified from cDNA prepared from low passage HEK 293T cells using the Ribozol RNA extraction reagent (Amresco) and the iScript Reverse Transcription Supermix kit (Bio-Rad). For the following proteins cDNA clones were used for amplification instead: PFKP (5180268, Dharmacon), HK1 (BC008730, transomic), SIN3A (BC137098, transomic), G6PD (BC000337, transomic) and TGIF1 (BC031268, transomic). Mouse CARM1 in pFLAG-CMV-6c was a kind gift from the Mowen lab (TSRI). NUDT2 was obtained as synthesized gene (IDT). DNA was amplified with custom forward and reverse primers using phusion polymerase (NEB, M0530S), digested with the indicated restriction enzyme and ligated into pFLAG-CMV-6c or pRK5 with the appropriate affinity tag. Lysine mutants were generated using QuikChange site-directed mutagenesis using Phusion® High-Fidelity DNA Polymerase and primers containing the desired mutations and their respective complements. The cloning of TTR and its K35A mutant has been described in Choi et al., “Chemoselective small molecules that covalently modify one lysine in a non-enzyme protein in plasma,” Nat. Chem. Biol. 6, 133-139 (2010). TTR was expressed in E. coli and purified as described. For gel-based experiments 1 μM TTR was added into 1 mg ml^−1 soluble MDA-MB-231 lysate.
Direct labeling of recombinantly expressed proteins by gel-based ABPP. 50 μL of soluble HEK 293T proteome (1 mg ml^−1) expressing the respective protein (WT or KR mutant) or transfected with an empty vector were treated with 10 μM of the indicated probe for 1 h at room temperature. The samples were analyzed as described in the previous section. For quantification of relative labeling of the different protein variants, the intensity of labeling was determined by quantifying the integrated optical intensity of the bands using ImageLab 5.2.1 software (BioRad).

Row | SMILES | labeling of WT vs mutant protein by probe
14 | Cc1cc(C)n2c1C=C1C=CC(CCC(=O)Oc3c(F)c(F)c(S(=O)(=O)[O-])c(F)c3F)=[N+]1[B-]2(F)F.[Na+] [probe 18, reference compound] | HD (the WT labeled more than the mutant (>4x difference quantified))
15 | C#Cc1ccc(C(=O)Oc2ccccc2[N+](=O)[O-])cc1 [probe 10, 2-Nitrophenyl 4-ethynylbenzoate] | HD (the WT labeled more than the mutant (>4x difference quantified))
16 | C#Cc1ccc(C(=O)Oc2c(F)c(F)cc(F)c2F)cc1 [probe 12, 2,3,5,6-Tetrafluorophenyl 4-ethynylbenzoate] | HD (the WT labeled more than the mutant (>4x difference quantified))
17 | C#CCCC(=O)Oc1c(F)c(F)c(S(=O)(=O)[O-])c(F)c1F.[Na+] [probe 1, reference compound] | HD (the WT labeled more than the mutant (>4x difference quantified))
18 | C#CCCC(=O)Oc1c(F)c(F)c(F)c(F)c1F [probe 6, Pentafluorophenyl 4-pentynoate] | HD (the WT labeled more than the mutant (>4x difference quantified))
19 | C#Cc1ccc(C(=O)Oc2c(F)c(F)c(F)c(F)c2F)cc1 [probe 13, Pentafluorophenyl 4-ethynylbenzoate] | HD (the WT labeled more than the mutant (>4x difference quantified))
